What was measured:
Type in all cases: physicochemical
[1] = Hygroscopicity (moisture sorption isotherms, VTI method)
Description: Hygroscopicicity studies were performed on F-I and F-III. Upon initial exposure of the samples to approximately 5% RH, there was an immediate weight gain of 1.5% and 1.7% moisture for F-I and F-III, respectively, equivalent to approximately 0.5 mole of water. Both forms show a continuous sorption of moisture through the entire humidity range, which is likely due to incorporation of water molecules in the lattices.
The moisture sorption profiles for F-I and F-III reveal that these forms are essentially non-stoichiometric hydrates. At ambient relative humidity (about 50% RH), F-I contains approximately 1.7% water, corresponding to 0.5 moles of water, while F-III has sorbed about 3.0% water which corresponds to about 0.85 moles of water. The bulk forms of F-I and F-III rapidly equilibrate with the atmosphere, so that the water content observed by analytical techniques is a reflection of the relative humidity at the time of data collection. Lot-to-lot differences observed in the DSC data likely results from the samples being hydrated to different extents due to different ambient storage conditions.
Hygroscopicity measurements were made for F-I and F-III using the VTI method as follows. Each sample was dried under vacuum at 60° C. until no further weight loss was detected, at which time the sample chamber was brought to 0% relative humidity. Moisture sorption isotherms were obtained at 25° C. using a VTI vacuum moisture balance with the following conditions: sample size 10-15 mg, adsorption/desorption range 0-95% relative humidity, step interval 5%, sample interval 10 minutes.

[2] = Stability at different relative humidities (XRD of stored samples); details: entire relative humidity range
Description: XRD patterns were obtained for samples of F-I and F-III stored at different relative humidities (0, 22, 50, and 80%). There is a gradual shifting of the initial (0% RH) F-III peaks at about 13.8, 17.6, 18.0, 20.5 and 24.0° in 2θ as well as slight shifting of less intense peaks, as the relative humidity is increased. These observed changes in the XRD patterns of F-III indicate that the unit cell dimensions are changing, presumably to accommodate weakly held water molecules as the relative humidity is increased.
A similar experiment was carried out on F-I to determine whether varying the relative humidity would have a similar effect on its lattice (0, 25, 52, 73 and 95% RH). Very slight shifting of the 0% RH peaks at about 7.7, 18.3, 18.5, 20.5, 20.8° in 2θ is observed as the relative humidity is increased. […] The shifting of peaks in the XRD patterns of F-I is less dramatic than the peak shifts observed as F-III was exposed to different relative humidities.
XRD patterns were obtained on a Siemens D5000 X-ray powder diffractometer, equipped with a CuKα source (λ=1.54056 Å) and a Kevex solid-state detector, operating at 50 kV and 40 mA. Each sample was scanned between 4° and 35° in 2θ. Samples were allowed to equilibrate for at least 30 minutes at the desired temperature and/or relative humidity before data collection.

[3] = Comparison of aqueous solubility and dissolution rate; details: F-I compared with F-III
[4] = Stability at ambient temperature relative to arzoxifene of '474; details: relative to the arzoxifene produced by the procedures taught in '474
[5] = ambient relative humidity (about 50% RH)

water content [1, 5]: approximately 1.7%
water content in moles of water [1, 5]: 0.5 mol
water equivalent of the weight gain ([1]; approximately 5% RH): approximately 0.5 mole
immediate weight gain of moisture ([1]; initial exposure to approximately 5% RH, 25° C.): 1.5%
aqueous solubilities [3]: comparable
dissolution rates [3]: comparable
stability at ambient temperature [4]: more stable
Compound: COc1ccc(-c2sc3cc(O)ccc3c2Oc2ccc(OCCN3CCCCC3)cc2)cc1.Cl [F-I, 6-hydroxy-3-(4-[2-(piperidin-1-yl)ethoxy]phenoxy)-2-(4-methoxyphenyl)benzo[b]thiophene hydrochloride]
stability over relative humidity range [2]: stable over the entire relative humidity range
